Where a name gives a salt, the structure may show the parent alone.
Legend:
Format in all cases: physicochemical
[1] = Thermal stress; details: 60° C., one week
Protocol: Thermal stress experiments were performed on KX2-391.MSA, Form A. Each 1-dram amber vial was filled with approximately 20 mg of KX2-391.MSA, Form A capped and stored in a vacuum over at 60° C. for one week. The resulting solids were analyzed by XRPD and HPLC.

[2] = Stability studies, 2 weeks at elevated temperature and/or relative humidity; details: for Form After 2 Weeks (XRPD): initial Form A; for Time to deliquescence: 95% RH, mesylate
Protocol: Stability studies were performed on KX2-391.MSA obtained in accordance with the process of the present invention (Example 4) using the conditions listed in Table 4 to determine the effects of exposure to elevated temperature and/or relative humidity on the crystalline form of KX2-391.MSA, Form A. After 2 weeks, the samples were analyzed by XRPD and HPLC to determine if any form change or degradation had occurred.

[3] = Humidity chamber hygroscopicity study (salt solution chambers, visual inspection); set-up: key to Observations/Time (hr): FF—Free flowing powder; D—Complete deliquescence of sample observed; CC—Colour change of sample observed; details: for XRPD after humidity chamber (compared with XRPD pattern of sponsor lot) / HPLC Assay (% Area Purity) after humidity chamber: up to 120 hr; for HPLC Assay (% Area Purity) after humidity chamber: initial 99.4
Protocol: Further characterization of the hygroscopicity of the mesylate salt was performed using several humidity chambers to cover a range of humidity from 75, 88 to 95% RH. The 75, 88, and 95% RH chambers were prepared with NaCl, BaCl2.2H2O, and Na2HPO4.12 H2O respectively and were equilibrated for 48 hours prior to introducing the samples. Samples were placed into aluminum pans and monitored by visual inspection for up to five days. Table 3 summarizes the observations at 0, 3, 5, 24, 48, 72, 96 and 120 hour time points.
Moisture sorption studies conducted at ambient temperature utilizing salt solution humidity chambers were conducted to evaluate solid stability by visual inspection.

[4] = 40° C./75% RH, accelerated stability chamber

Q: Which “HPLC purity after thermal stress” value [1] does the source give for `O=C(Cc1ccc(-c2ccc(OCCN3CCOCC3)cc2)cn1)NCc1ccccc1` [KX2-391.MSA, 2-(5-(4-(2-morpholinoethoxy)phenyl)pyridine-2-yl)-N-benzylacetamide mesylate] here?
A: 99.3%

Q: What about the “XRPD of solid after thermal stress” value [1] of the same compound?
A: consistent with the pattern of the initial KX2-391.MSA, Form A

Q: What about the “stability of crystalline form after exposure to the accelerated stability conditions” value ([2]; 2 weeks, conditions of Table 4) of the same compound?
A: stable crystalline form

Q: What about the “HPLC Purity (AUC) after 2 weeks” value [2, 4] of the same compound?
A: >99%

Q: What about the “Form After 2 Weeks (XRPD)” value [2, 4] of the same compound?
A: Form A

Q: And the “HPLC Purity (AUC) after 2 weeks” value ([2]; 51% RH, saturated salt chamber)?
A: >99%

Q: What about the “Form After 2 Weeks (XRPD)” value ([2]; 51% RH, saturated salt chamber) of the same compound?
A: Form A

Q: What about the “HPLC Purity (AUC) after 2 weeks” value ([2]; 60° C./ambient humidity, oven) of the same compound?
A: >99%

Q: What about the “Form After 2 Weeks (XRPD)” value ([2]; 60° C./ambient humidity, oven) of the same compound?
A: Form A

Q: What about the “HPLC Purity (AUC) after 2 weeks” value ([2]; 75% RH, saturated salt chamber) of the same compound?
A: >99%

Q: What about the “Form After 2 Weeks (XRPD)” value ([2]; 75% RH, saturated salt chamber) of the same compound?
A: Form A

Q: And the “HPLC Purity (AUC) after 2 weeks” value ([2]; 88% RH, saturated salt chamber)?
A: >99%

Q: And the “Form After 2 Weeks (XRPD)” value ([2]; 88% RH, saturated salt chamber)?
A: Form A

Q: And the Time to deliquescence ([2]; saturated salt chamber, listed as KX2-391-MSA)?
A: quesced <16 hrs

Q: And the Time to deliquescence ([2]; saturated salt chamber)?
A: less than 16 hrs

Q: And the “Observations/Time (hr)” value ([3]; 75% RH (NaCl) chamber, 0 hr)?
A: FF

Q: What about the “Observations/Time (hr)” value ([3]; 75% RH (NaCl) chamber, 3 hr) of the same compound?
A: FF

Q: And the “Observations/Time (hr)” value ([3]; 75% RH (NaCl) chamber, 5 hr)?
A: FF

Q: What about the “Observations/Time (hr)” value ([3]; 75% RH (NaCl) chamber, 24 hr) of the same compound?
A: FF

Q: And the “Observations/Time (hr)” value ([3]; 75% RH (NaCl) chamber, 48 hr)?
A: FF

Q: What about the “Observations/Time (hr)” value ([3]; 75% RH (NaCl) chamber, 72 hr) of the same compound?
A: FF

Q: What about the “Observations/Time (hr)” value ([3]; 75% RH (NaCl) chamber, 96 hr) of the same compound?
A: FF

Q: And the “Observations/Time (hr)” value ([3]; 75% RH (NaCl) chamber, 120 hr)?
A: FF

Q: And the “XRPD after humidity chamber (compared with XRPD pattern of sponsor lot)” value ([3]; 75% RH (NaCl) chamber)?
A: Consistent

Q: And the “HPLC Assay (% Area Purity) after humidity chamber” value ([3]; 75% RH (NaCl) chamber)?
A: 99.4 % Area Purity

Q: And the “stability in humidity chamber (deliquescence, decomposition by HPLC)” value ([3]; 75% RH, up to five days)?
A: stable

Q: What about the “Observations/Time (hr)” value ([3]; 88% RH (BaCl2•2H2O) chamber, 0 hr) of the same compound?
A: FF

Q: And the “Observations/Time (hr)” value ([3]; 88% RH (BaCl2•2H2O) chamber, 3 hr)?
A: CC

Q: What about the “Observations/Time (hr)” value ([3]; 88% RH (BaCl2•2H2O) chamber, 5 hr) of the same compound?
A: CC

Q: What about the “Observations/Time (hr)” value ([3]; 88% RH (BaCl2•2H2O) chamber, 24 hr) of the same compound?
A: CC

Q: What about the “Observations/Time (hr)” value ([3]; 88% RH (BaCl2•2H2O) chamber, 48 hr) of the same compound?
A: CC

Q: What about the “Observations/Time (hr)” value ([3]; 88% RH (BaCl2•2H2O) chamber, 72 hr) of the same compound?
A: CC

Q: And the “Observations/Time (hr)” value ([3]; 88% RH (BaCl2•2H2O) chamber, 96 hr)?
A: CC

Q: What about the “Observations/Time (hr)” value ([3]; 88% RH (BaCl2•2H2O) chamber, 120 hr) of the same compound?
A: CC

Q: And the “XRPD after humidity chamber (compared with XRPD pattern of sponsor lot)” value ([3]; 88% RH (BaCl2•2H2O) chamber)?
A: Consistent

Q: And the “HPLC Assay (% Area Purity) after humidity chamber” value ([3]; 88% RH (BaCl2•2H2O) chamber)?
A: 89.3 % Area Purity

Q: And the “colour of material after exposure” value ([3]; 88% RH, up to five days)?
A: darker color yellow

Q: What about the “degradation by HPLC” value ([3]; 88% RH, up to five days) of the same compound?
A: roughly 10 % area

Q: What about the “deliquescence on exposure to high humidity” value ([3]; 95% RH) of the same compound?
A: deliquesce within three hours

Q: And the “Observations/Time (hr)” value ([3]; 95% RH (Na2HPO4•12H2O) chamber, 0 hr)?
A: FF

Q: And the “Observations/Time (hr)” value ([3]; 95% RH (Na2HPO4•12H2O) chamber, 3 hr)?
A: D

Q: What about the “Observations/Time (hr)” value ([3]; 95% RH (Na2HPO4•12H2O) chamber, 5 hr) of the same compound?
A: D

Q: And the “Observations/Time (hr)” value ([3]; 95% RH (Na2HPO4•12H2O) chamber, 24 hr)?
A: D

Q: What about the “Observations/Time (hr)” value ([3]; 95% RH (Na2HPO4•12H2O) chamber, 48 hr) of the same compound?
A: D

Q: And the “Observations/Time (hr)” value ([3]; 95% RH (Na2HPO4•12H2O) chamber, 72 hr)?
A: D

Q: And the “Observations/Time (hr)” value ([3]; 95% RH (Na2HPO4•12H2O) chamber, 96 hr)?
A: D

Q: And the “Observations/Time (hr)” value ([3]; 95% RH (Na2HPO4•12H2O) chamber, 120 hr)?
A: D

From patent publication US10323001B2, “Compositions for modulating a kinase cascade and methods of use thereof” (Athenex, Inc., priority 2006, dated 2019)
